# From patent US20260132123A1, “ABAD INHIBITOR COMPOUNDS” (UNIVERSITY COURT OF THE UNIVERSITY OF ST ANDREWS, priority 2021, published 2026)
# Target: T1, 17β-HSD10 (Homo sapiens, UniProt Q99714)
# T1 construct: Histev (histidine tag with TEV site) (N, cleaved yes); made in house; host or cells: E. coli BL21-CodonPlus
# T1 sequence (Q99714 1-261): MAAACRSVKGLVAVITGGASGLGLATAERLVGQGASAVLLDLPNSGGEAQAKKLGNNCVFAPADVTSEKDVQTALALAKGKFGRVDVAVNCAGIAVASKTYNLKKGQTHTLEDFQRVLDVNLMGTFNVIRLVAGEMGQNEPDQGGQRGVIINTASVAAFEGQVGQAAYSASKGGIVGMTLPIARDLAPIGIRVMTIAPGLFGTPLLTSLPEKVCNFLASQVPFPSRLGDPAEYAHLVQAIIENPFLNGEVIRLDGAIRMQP
# Experiment: 17β-HSD10 (ABAD) enzyme inhibition assay, NADH oxidation read at 340 nm (primary screen and dose response)
# Format: biochemical
# Settings: for EC50 / Max. Effect (%) / Hill Slope / Max. Fit / Min. Fit: recombinant 17βHSD10 enzyme assay; for Hill Slope / Max. Fit / Min. Fit: curve fit
# How it was run: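 Tag-cleaved recombinant human 17β-HSD10 (2.5 nM) preincubated 15 min with compound in Tris pH 7.4, NaCl, DTT, Tween, BSA (catalase in some runs), then 100 μM acetoacetyl-CoA and NADH added. NADH oxidation by A340 fall: 35 min endpoint for screening at 10 μM; continuous 45 min for dose response.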
Compound,EC50,Max. Effect (%),Hill Slope,Max. Fit,Min. Fit,17β-HSD10 / ABAD activity in words (SAR discussion),"ABAD plC50 (primary screening, resynthesized HTS hit compounds)"
"Cc1cn[nH]c1C(=O)N1CCC[C@H]1c1ccccc1 [S1−T1, 4-methyl-5-{[(2S)-2-phenylpyrrolidin-1-yl]carbonyl}-1H-pyrazole]",> 20 µM,26.5%,,,,,
Cc1ccsc1C(=O)N1CCC[C@@H]1c1ccccc1-c1cnn(CCO)c1 [ESC1002463],3.47 µM,87%,0.79,110,−6,,
COc1cccc(-c2ccccc2[C@H]2CCCN2C(=O)c2cccs2)c1 [ESC1002425],0.479 µM,96%,1.1,95,−8,,
CNC(=O)CNc1cccc(N(CC(C)C)C(=O)c2ccccc2F)c1 [ESC1002573],> 20 µM,4%,,,,,
"CC(C)N(C(=O)c1ccccc1F)c1cccc(N(C)Cc2cnc[nH]2)c1 [ESC1002078, 2-fluoro-N-[3-[1H-imidazol-5-ylmethyl(methyl)amino]phenyl]-N-isopropyl-benzamide]",0.631 µM,97%,1,101,−1,,
Cc1ccsc1C(=O)N1CCC[C@@H]1c1ccccc1-c1ccccc1 [ESC1002462],0.234 µM,99%,1.4,98,6,,
COc1cccc(-c2ccccc2[C@H]2CCCN2C(C)c2ccccc2)c1 (stereo partly shown) [ESC1002505],> 20 µM,3%,,,,,
Cc1ccsc1C(=O)N1CCC[C@@H]1c1ccccc1-c1c[nH]nc1C [ESC1002464],2.04 µM,84%,1.1,91,−5,,
CC(C)CN(C(=O)c1ccccc1F)c1cccc(NCc2c[nH]cn2)c1 [ESC1002631],9.33 µM,64%,0.94,100,−6,,
"CC(C)CN(C(=O)c1cnccn1)c1cccc(N(C)Cc2c[nH]cn2)c1 [ESC1002656, N-[3-[1H-imidazol-4-ylmethyl(methyl)amino]phenyl]-N-isobutyl-pyrazine-2-carboxamide]",> 20 µM,45%,,,,,
"COc1cccc(-c2ccccc2[C@@H]2CCCN2C(=O)c2[nH]ncc2Cl)c1 (single isomer, unassigned) [ESC1002756]",> 20 µM,24%,,,,,
"O=C(c1ncco1)N1CCC[C@H]1c1ccccc1 [S1−T9, 2-{[(2S)-2-phenylpyrrolidin-1-yl]carbonyl}-1,3-oxazole]",> 20 µM,26.6%,,,,,
Cn1cc(-c2ccccc2[C@@H]2CCCN2C(=O)c2sccc2Cl)cn1 (racemic) [ESC1002704],1.07 µM,98%,1,103,−10,,
COc1cccc(-c2ccccc2[C@H]2CCCN2C(=O)c2sc(C)nc2C)c1 [ESC1002427],> 20 µM,4%,,,,,
"CN(Cc1cnc[nH]1)c1ccc2c(c1)N(C(=O)c1ccccc1F)CCC2 [ESC1002083, (2-fluorophenyl)-[7-[1H-imidazol-5-ylmethyl(methyl)amino]-3,4-dihydro-2H-quinolin-1-yl]methanone]",> 20 µM,2%,,,,,
O=C(c1sccc1Cl)N1CCC[C@H]1c1ccccc1-c1ccnc(O)c1 (racemic) [ESC1002697],> 20 µM,43%,,,,less active,
CC(C)CN(C(=O)c1ccccc1F)c1cccc(N(C)Cc2c[nH]c(C(C)C)n2)c1 [ESC1002633],> 20 µM,45%,0.93,100,−3,further losses in potency,

Compound,EC50,Max. Effect (%),Hill Slope,Max. Fit,Min. Fit,17β-HSD10 / ABAD activity in words (SAR discussion),"ABAD plC50 (primary screening, resynthesized HTS hit compounds)"
Cc1ccsc1C(=O)N1CCC[C@@H]1c1ccccc1-c1ccc(F)cc1 [ESC1002423],0.38 µM,96%,2.3,93,9,,
Cc1ccsc1C(=O)N1CCC[C@H]1c1ccccc1-c1cccc(C(F)(F)F)c1 (racemic) [ESC1002790],,93%,1.2,93,−1,,
"Cc1ccsc1C(=O)N1CCC[C@H]1c1ccccc1-c1cccc(C(F)(F)F)c1 (single isomer, unassigned) [ESC1002789]",> 20 µM,,,,,,
O=C(c1sccc1Cl)N1CCC[C@H]1c1ccccc1-c1cncnc1 (racemic) [ESC1002698],7.41 µM,59%,1.1,71,1,,
CCOc1cccc(-c2ccccc2[C@@H]2CCCN2C(=O)c2sccc2Cl)c1 (racemic) [ESC1002664],0.417 µM,92%,1.2,92,0,,
CC(C)CN(C(=O)c1ccccc1F)c1cccc(N(C)CCO)c1 [ESC1002577],8.13 µM,72%,0.95,100,−1,,
"O=C(c1sccc1Cl)N1CCC[C@H]1c1ccccc1-c1cc(O)cc(F)c1 (single isomer, unassigned) [ESC1002801]",0.0513 µM,100%,1.2,96,−1,,
"CCCCN(C(=O)c1ccccc1F)c1cccc(N(C)Cc2c[nH]cn2)c1 [ESC1002508, N-butyl-2-fluoro-N-[3-[1H-imidazol-4-ylmethyl(methyl)amino]phenyl]benzamide]",1.55 µM,92%,1.2,96,0,,
"COc1cccc(C(=O)N(CC(C)C)c2cccc(N(C)Cc3cnc[nH]3)c2)c1 [ESC1002038, N-[3-[1H-imidazol-5-ylmethyl(methyl)amino]phenyl]-N-isobutyl-3-methoxy-benzamide]",2 µM,92%,0.8,105,−2,,5.7
COc1cc(OC)cc(-c2ccccc2[C@@H]2CCCN2C(=O)c2sccc2Cl)c1 (racemic) [ESC1002662],0.603 µM,92%,1.2,92,−1,,
"O=C(c1sccc1Cl)N1CCC[C@H]1c1ccccc1-c1cc(O)ccc1F (single isomer, unassigned) [ESC1002843]",10.7 µM,70%,1.1,100,−1,,
CC(C)CN(C(=O)c1ccccc1F)c1cccc(N(C)CC(N)=O)c1 [ESC1002570],> 20 µM,48%,,,,,
O=C(c1sccc1Cl)N1CCC[C@H]1c1ccccc1-c1ccc2[nH]ncc2c1 (racemic) [ESC1002701],0.288 µM,99%,1.2,96,0,,
CC(C)CN(C(=O)c1ccccc1F)c1cccc(-n2cnnc2)c1 [ESC1002764],> 20 µM,4%,,,,,
COc1cccc(-c2ccccc2[C@@H]2CCCN2Cc2sccc2F)c1 (racemic) [ESC1002695],> 20 µM,1%,,,,lost all activity,
"O=C(c1ccncc1)N1CCC[C@H]1c1ccccc1 [S1−T13, 4-{[(2S)-2-phenylpyrrolidin-1-yl]carbonyl}pyridine]",> 20 µM,22.3%,,,,,
COc1cccc(-c2ccccc2[C@H]2CCCN2C(=O)C2CCOCC2)c1 [ESC1002435],> 20 µM,12%,,,,,
